Values after ≈ are worked out from the molar mass of the structure shown. Like-named read-outs stand apart in the source and are kept apart here. Where a SMILES comes first, the peptide text is derived from it. Bridges are numbered along the chain shown (N, C = ends).
Tests used:
S. simulans 22 = test: MIC assays under standard conditions; assay type: cell-based, Staphylococcus simulans; settings: for Minimum inhibitory concentration, S. simulans / MIC: cation-adjusted MHB, 37 °C; for MIC: Staphylococcus simulans, 22
Protocol: (§1) Plectasin and analogues were serially diluted in cation-adjusted Mueller–Hinton broth (MHB) in round-bottom polypropylene 96-well plates (50 µl per well). Selected bacterial strains were grown from glycerol stocks on blood agar plates. Individual colonies were inoculated in TSB and incubated at 37 °C while shaking until OD600 reached 0.5. Bacterial suspensions were then diluted 100 times in cation-adjusted MHB and distributed (50 μl per well) over the microplate containing the diluted plectasin solutions. Plates were covered by a gas-permeable adhesive membrane and incubated at 37 °C while shaking. MICs were determined by visual inspection after 16–20 h (Staphylococcus) or 20–24 h (Streptococcus). For Streptococcus strains, the broth was additionally supplemented with 5% lysed horse blood, and the microplates were incubated under 5% CO2 atmosphere. In the assays, we used the following strains: S. simulans, S. pneumoniae serotype 8, S. pneumoniae ATCC6305 and Streptococcus pyogenes M3.

S. pneumoniae ATCC6305 = test: MIC assays under standard conditions; assay type: cell-based, Streptococcus pneumoniae; settings: Supplementary Table 1, cation-adjusted MHB + 5% lysed horse blood, 5% CO2, 20–24 h
Protocol: as §1

CC[C@H](C)[C@@H]1NC(=O)[C@H](CO)NC(=O)[C@H](CCCCN)NC(=O)[C@@H]2CSSC[C@@H](C(=O)N[C@@H](Cc3ccc(O)cc3)C(=O)O)NC(=O)[C@H](CCCCN)NC(=O)[C@@H]3CSSC[C@H](NC(=O)[C@H](CCC(N)=O)NC(=O)[C@H](CCSC)NC(=O)[C@H](CC(=O)O)NC(=O)[C@H](CC(=O)O)NC(=O)[C@H](CCC(=O)O)NC(=O)[C@H](CC(=O)O)NC(=O)[C@H](Cc4c[nH]c5ccccc45)NC(=O)[C@@H]4CCCN4C(=O)CNC(=O)[C@H](CC(N)=O)NC(=O)[C@@H](NC(=O)CNC(=O)[C@H](Cc4ccccc4)NC(=O)CN)CSSC[C@H](NC(=O)[C@H](Cc4ccc(O)cc4)NC(=O)CNC(=O)CNC(=O)[C@H](CCCCN)NC(=O)[C@H](Cc4ccccc4)NC(=O)CNC(=O)[C@H](CCCCN)NC1=O)C(=O)N[C@@H](C)C(=O)N[C@@H](CCCCN)C(=O)NCC(=O)NCC(=O)N[C@@H](Cc1ccccc1)C(=O)N[C@@H](C(C)C)C(=O)N3)C(=O)N[C@@H](Cc1c[nH]cn1)C(=O)N[C@@H](CC(N)=O)C(=O)N[C@@H](Cc1c[nH]cn1)C(=O)N2 [Y25F] (H-GFGCNGPWDEDDMQCHNHCKSIKGFKGGYCAKGGFVCKCY-OH; disulfide 4-30, 15-37, 19-39 (inferred); N-terminus and C-terminus assumed)
Minimum inhibitory concentration, S. simulans (S. simulans 22; Supplementary Table 1, 16–20 h): 1,56 μg/mL
Minimum inhibitory concentration, S. pneumoniae ATCC6305 (S. pneumoniae ATCC6305): 3,125 μg/mL

CC[C@H](C)[C@@H]1NC(=O)[C@H](CO)NC(=O)[C@H](CCCCN)NC(=O)[C@@H]2CSSC[C@@H](C(=O)N[C@@H](Cc3ccccc3)C(=O)O)NC(=O)[C@H](CCCCN)NC(=O)[C@@H]3CSSC[C@H](NC(=O)[C@H](CCC(N)=O)NC(=O)[C@H](CCSC)NC(=O)[C@H](CC(=O)O)NC(=O)[C@H](CC(=O)O)NC(=O)[C@H](CCC(=O)O)NC(=O)[C@H](CC(=O)O)NC(=O)[C@H](Cc4c[nH]c5ccccc45)NC(=O)[C@@H]4CCCN4C(=O)CNC(=O)[C@H](CC(N)=O)NC(=O)[C@@H](NC(=O)CNC(=O)[C@H](Cc4ccccc4)NC(=O)CN)CSSC[C@H](NC(=O)[C@H](Cc4ccc(O)cc4)NC(=O)CNC(=O)CNC(=O)[C@H](CCCCN)NC(=O)[C@H](Cc4ccc(O)cc4)NC(=O)CNC(=O)[C@H](CCCCN)NC1=O)C(=O)N[C@@H](C)C(=O)N[C@@H](CCCCN)C(=O)NCC(=O)NCC(=O)N[C@@H](Cc1ccccc1)C(=O)N[C@@H](C(C)C)C(=O)N3)C(=O)N[C@@H](Cc1c[nH]cn1)C(=O)N[C@@H](CC(N)=O)C(=O)N[C@@H](Cc1c[nH]cn1)C(=O)N2 [Y40F] (H-GFGCNGPWDEDDMQCHNHCKSIKGYKGGYCAKGGFVCKCF-OH; disulfide 4-30, 15-37, 19-39 (inferred); N-terminus and C-terminus assumed)
Minimum inhibitory concentration, S. simulans (S. simulans 22; Supplementary Table 1, 16–20 h): 1,56 μg/mL
Minimum inhibitory concentration, S. pneumoniae ATCC6305 (S. pneumoniae ATCC6305): 0,78 μg/mL

CSCC[C@@H]1NC(=O)[C@H](CC(=O)O)NC(=O)[C@H](CC(=O)O)NC(=O)[C@H](CCC(=O)O)NC(=O)[C@H](CC(=O)O)NC(=O)[C@H](Cc2c[nH]c3ccccc23)NC(=O)[C@@H]2CCCN2C(=O)CNC(=O)[C@H](CC(N)=O)NC(=O)[C@@H](NC(=O)CNC(=O)[C@H](Cc2ccccc2)NC(=O)CN)CSSC[C@@H]2NC(=O)[C@H](Cc3ccc(O)cc3)NC(=O)CNC(=O)CNC(=O)[C@H](CCCCN)NC(=O)[C@H](Cc3ccc(O)cc3)NC(=O)CNC(=O)[C@H](CCCCN)NC(=O)[C@H](CCCCN)NC(=O)[C@H](CO)NC(=O)[C@H](CCCCN)NC(=O)[C@@H]3CSSC[C@@H](C(=O)N[C@@H](Cc4ccc(O)cc4)C(=O)O)NC(=O)[C@H](CCCCN)NC(=O)[C@H](CSSC[C@H](NC(=O)[C@H](CCC(N)=O)NC1=O)C(=O)N[C@@H](Cc1c[nH]cn1)C(=O)N[C@@H](CC(N)=O)C(=O)N[C@@H](Cc1c[nH]cn1)C(=O)N3)NC(=O)[C@H](C(C)C)NC(=O)[C@H](Cc1ccccc1)NC(=O)CNC(=O)CNC(=O)[C@H](CCCCN)NC(=O)[C@H](C)NC2=O [I22K] (H-GFGCNGPWDEDDMQCHNHCKSKKGYKGGYCAKGGFVCKCY-OH; disulfide 4-30, 15-37, 19-39 (inferred); N-terminus and C-terminus assumed)
Minimum inhibitory concentration, S. simulans (S. simulans 22; Supplementary Table 1, 16–20 h): > 50 µg/mL
Minimum inhibitory concentration, S. pneumoniae ATCC6305 (S. pneumoniae ATCC6305): > 50 µg/mL

CC[C@H](C)[C@@H]1NC(=O)[C@H](CO)NC(=O)[C@H](CCCCN)NC(=O)[C@@H]2CSSC[C@@H](C(=O)N[C@@H](Cc3ccc(O)cc3)C(=O)O)NC(=O)[C@H](CCCCN)NC(=O)[C@@H]3CSSC[C@H](NC(=O)[C@H](CCC(N)=O)NC(=O)[C@H](CCSC)NC(=O)[C@H](CC(=O)O)NC(=O)[C@H](CC(=O)O)NC(=O)[C@H](CCC(=O)O)NC(=O)[C@H](CC(=O)O)NC(=O)[C@H](Cc4c[nH]c5ccccc45)NC(=O)[C@@H]4CCCN4C(=O)CNC(=O)[C@H](CC(N)=O)NC(=O)[C@@H](NC(=O)CNC(=O)[C@H](Cc4ccccc4)NC(=O)CN)CSSC[C@H](NC(=O)[C@H](CCCNC(=N)N)NC(=O)CNC(=O)CNC(=O)[C@H](CCCCN)NC(=O)[C@H](Cc4ccc(O)cc4)NC(=O)CNC(=O)[C@H](CCCCN)NC1=O)C(=O)N[C@@H](C)C(=O)N[C@@H](CCCCN)C(=O)NCC(=O)NCC(=O)N[C@@H](Cc1ccccc1)C(=O)N[C@@H](C(C)C)C(=O)N3)C(=O)N[C@@H](Cc1c[nH]cn1)C(=O)N[C@@H](CC(N)=O)C(=O)N[C@@H](Cc1c[nH]cn1)C(=O)N2 [Y29R] (H-GFGCNGPWDEDDMQCHNHCKSIKGYKGGRCAKGGFVCKCY-OH; disulfide 4-30, 15-37, 19-39 (inferred); N-terminus and C-terminus assumed)
Minimum inhibitory concentration, S. simulans (S. simulans 22; Supplementary Table 1, 16–20 h): 1,56 μg/mL
Minimum inhibitory concentration, S. pneumoniae ATCC6305 (S. pneumoniae ATCC6305): 1,56 μg/mL

CC[C@H](C)[C@@H]1NC(=O)[C@H](CO)NC(=O)[C@H](CCCCN)NC(=O)[C@@H]2CSSC[C@@H](C(=O)N[C@@H](Cc3ccc(O)cc3)C(=O)O)NC(=O)[C@H](CCCCN)NC(=O)[C@@H]3CSSC[C@H](NC(=O)[C@H](CCC(N)=O)NC(=O)[C@H](CCSC)NC(=O)[C@H](CC(=O)O)NC(=O)[C@H](CC(=O)O)NC(=O)[C@H](CCC(=O)O)NC(=O)[C@H](CC(=O)O)NC(=O)[C@H](Cc4c[nH]c5ccccc45)NC(=O)[C@@H]4CCCN4C(=O)CNC(=O)[C@H](CC(N)=O)NC(=O)[C@@H](NC(=O)CNC(=O)[C@H](Cc4ccccc4)NC(=O)CN)CSSC[C@H](NC(=O)[C@H](Cc4ccc(O)cc4)NC(=O)CNC(=O)CNC(=O)[C@H](C)NC(=O)[C@H](Cc4ccc(O)cc4)NC(=O)CNC(=O)[C@H](CCCCN)NC1=O)C(=O)N[C@@H](C)C(=O)N[C@@H](CCCCN)C(=O)NCC(=O)NCC(=O)N[C@@H](Cc1ccccc1)C(=O)N[C@@H](C(C)C)C(=O)N3)C(=O)N[C@@H](Cc1c[nH]cn1)C(=O)N[C@@H](CC(N)=O)C(=O)N[C@@H](Cc1c[nH]cn1)C(=O)N2 [K26A] (H-GFGCNGPWDEDDMQCHNHCKSIKGYAGGYCAKGGFVCKCY-OH; disulfide 4-30, 15-37, 19-39 (inferred); N-terminus and C-terminus assumed)
Minimum inhibitory concentration, S. simulans (S. simulans 22; Supplementary Table 1, 16–20 h): 3,13 μg/mL
reduction in activity vs plectasin (S. simulans 22; from MIC of Table 1): fivefold to tenfold
Minimum inhibitory concentration, S. pneumoniae ATCC6305 (S. pneumoniae ATCC6305): 3,13 μg/mL

CN[C@H](CC(C)C)C(=O)N[C@H]1C(=O)N[C@@H](CC(N)=O)C(=O)N[C@H]2C(=O)N[C@H]3C(=O)N[C@H](C(=O)N[C@H](C(=O)O)c4cc(O)cc(O)c4-c4cc3ccc4O)[C@H](O)c3ccc(c(Cl)c3)Oc3cc2cc(c3O[C@@H]2O[C@H](CO)[C@@H](O)[C@H](O)[C@H]2O[C@H]2C[C@](C)(N)[C@H](O)[C@H](C)O2)Oc2ccc(cc2Cl)[C@H]1O [Vancomycin, reference compound]
MIC (S. simulans 22; Supplementary Table 1, 16–20 h, read-out: Minimum inhibitory concentration, S. simulans): 0.78 µg/mL (≈ 0.538 µM)
MIC (S. simulans 22; standard conditions, visual inspection after 16–20 h, read-out: MIC): 0.78 µg/mL (≈ 0.538 µM)
MIC (S. pneumoniae ATCC6305; Streptococcus pneumoniae, ATCC6305, read-out: Minimum inhibitory concentration, S. pneumoniae ATCC6305): < 0.78 µg/mL

CC[C@H](C)[C@@H]1NC(=O)[C@H](CO)NC(=O)[C@H](CCCCN)NC(=O)[C@@H]2CSSC[C@@H](C(=O)N[C@@H](CCCNC(=N)N)C(=O)O)NC(=O)[C@H](CCCCN)NC(=O)[C@@H]3CSSC[C@H](NC(=O)[C@H](CCC(N)=O)NC(=O)[C@H](CCSC)NC(=O)[C@H](CC(=O)O)NC(=O)[C@H](CC(=O)O)NC(=O)[C@H](CCC(=O)O)NC(=O)[C@H](CC(=O)O)NC(=O)[C@H](Cc4c[nH]c5ccccc45)NC(=O)[C@@H]4CCCN4C(=O)CNC(=O)[C@H](CC(N)=O)NC(=O)[C@@H](NC(=O)CNC(=O)[C@H](Cc4ccccc4)NC(=O)CN)CSSC[C@H](NC(=O)[C@H](Cc4ccc(O)cc4)NC(=O)CNC(=O)CNC(=O)[C@H](CCCCN)NC(=O)[C@H](Cc4ccc(O)cc4)NC(=O)CNC(=O)[C@H](CCCCN)NC1=O)C(=O)N[C@@H](C)C(=O)N[C@@H](CCCCN)C(=O)NCC(=O)NCC(=O)N[C@@H](Cc1ccccc1)C(=O)N[C@@H](C(C)C)C(=O)N3)C(=O)N[C@@H](Cc1c[nH]cn1)C(=O)N[C@@H](CC(N)=O)C(=O)N[C@@H](Cc1c[nH]cn1)C(=O)N2 [Y40R] (H-GFGCNGPWDEDDMQCHNHCKSIKGYKGGYCAKGGFVCKCR-OH; disulfide 4-30, 15-37, 19-39 (inferred); N-terminus and C-terminus assumed)
Minimum inhibitory concentration, S. simulans (S. simulans 22; Supplementary Table 1, 16–20 h): > 50 µg/mL
Minimum inhibitory concentration, S. pneumoniae ATCC6305 (S. pneumoniae ATCC6305): > 50 µg/mL
